Reference: patent US12297190B2, “Modulators of STING (stimulator of interferon genes)” (PFIZER INC., priority 2019, dated 2025)

Biological target: R232-STING (Homo sapiens, UniProt Q86WV6, H232R)
Test: biochemical

Sequence of R232-STING (Q86WV6 155-341 H232R): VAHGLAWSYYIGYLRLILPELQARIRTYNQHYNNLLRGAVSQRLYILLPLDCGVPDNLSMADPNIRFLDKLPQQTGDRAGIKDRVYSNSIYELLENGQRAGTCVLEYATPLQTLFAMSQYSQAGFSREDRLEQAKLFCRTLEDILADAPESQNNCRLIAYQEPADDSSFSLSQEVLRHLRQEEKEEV

Ki [nM]	Compound
> 990	CCn1nc(C)cc1-c1n[nH]c(-c2cc(C(N)=O)cc3c2cnn3CCN2CCOC[C@@H]2CO)n1 [ZZZ116, 4-[3-(1-ethyl-3-methyl-1H-pyrazol-5-yl)-1H-1,2,4-triazol-5-yl]-1-{2-[(3S)-3-(hydroxymethyl)morpholin-4-yl]ethyl}-1H-indazole-6-carboxamide]
> 990	CCn1nc(C)cc1-c1nnc(-c2cc(C(N)=O)cc3c2cnn3C(C)CN2CCCCC2)[nH]1 (stereo not drawn) [ZZZ026, 4-[5-(1-ethyl-3-methyl-1H-pyrazol-5-yl)-4H-1,2,4-triazol-3-yl]-1-[1-(piperidin-1-yl)propan-2-yl]-1H-indazole-6-carboxamide]
> 900	CCn1nc(C)cc1-c1nnc(-c2c(C(F)(F)F)c(C(N)=O)cc3c2cnn3C)[nH]1 [ZZZ044, 4-[5-(1-ethyl-3-methyl-1H-pyrazol-5-yl)-4H-1,2,4-triazol-3-yl]-1-methyl-5-(trifluoromethyl)-1H-indazole-6-carboxamide]
543	CCn1ccc2c(-c3nc(-c4cc(C)nn4CCC(=O)O)n[nH]3)nc(C(N)=O)cc21 [ZZZ062, 3-{5-[5-(6-carbamoyl-1-ethyl-1H-pyrrolo[3,2-c]pyridin-4-yl)-1H-1,2,4-triazol-3-yl]-3-methyl-1H-pyrazol-1-yl}propanoic acid]
63.3	CCn1nc(C)c(O)c1-c1cnc(-c2cc(C(N)=O)cc3c2cnn3C)[nH]1 [ZZZ123, 4-[5-(1-ethyl-4-hydroxy-3-methyl-1H-pyrazol-5-yl)-1H-imidazol-2-yl]-1-methyl-1H-indazole-6-carboxamide]
> 990	CCn1nc(C)cc1-c1nc(-c2nc(C(N)=O)cc3c2cnn3C)n(CCNC)n1 [ZZZ126, 4-{3-(1-ethyl-3-methyl-1H-pyrazol-5-yl)-1-[2-(methylamino)ethyl]-1H-1,2,4-triazol-5-yl}-1-methyl-1H-pyrazolo[4,3-c]pyridine-6-carboxamide]
641	CCn1nc(C)cc1-c1nnc(-c2cc(C(N)=O)cc3c2cnn3C[C@H](C)C2CCNCC2)[nH]1 [ZZZ078, 4-[5-(1-ethyl-3-methyl-1H-pyrazol-5-yl)-4H-1,2,4-triazol-3-yl]-1-[(2R)-2-(piperidin-4-yl)propyl]-1H-indazole-6-carboxamide]
> 990	CCn1nc(C)c(F)c1-c1nc(-c2nc(C(N)=O)cc3c2cnn3CCN2C[C@@H](C)O[C@@H](C)C2)n(C)n1 [ZZZ087, 1-{2-[(2R,6S)-2,6-dimethylmorpholin-4-yl]ethyl}-4-[3-(1-ethyl-4-fluoro-3-methyl-1H-pyrazol-5-yl)-1-methyl-1H-1,2,4-triazol-5-yl]-1H-pyrazolo[4,3-c]pyridine-6-carboxamide]
723	CCn1nc(C)cc1-c1n[nH]c(-c2cc(C(N)=O)cc3c2cnn3CCN2CCOC[C@@H]2C2CC2)n1 (racemic) [ZZZ099, 1-{2-[(3S)-3-cyclopropylmorpholin-4-yl]ethyl}-4-[3-(1-ethyl-3-methyl-1H-pyrazol-5-yl)-1H-1,2,4-triazol-5-yl]-1H-indazole-6-carboxamide]
714	CCCN1CCC[C@@H]1Cn1ncc2c(-c3nnc(-c4cc(C)nn4CC)[nH]3)cc(C(N)=O)cc21 (racemic) [ZZZ025, 4-[5-(1-ethyl-3-methyl-1H-pyrazol-5-yl)-4H-1,2,4-triazol-3-yl]-1-{[(2R)-1-propylpyrrolidin-2-yl]methyl}-1H-indazole-6-carboxamide]
> 990	CCc1cc(-c2n[nH]c(-c3cc(C(N)=O)cc4c3cnn4C)n2)n(CC)n1 [ZZZ005, 4-[3-(1,3-diethyl-1H-pyrazol-5-yl)-1H-1,2,4-triazol-5-yl]-1-methyl-1H-indazole-6-carboxamide]
948	CCn1nc(C)cc1-c1nnc(-c2cc(C(N)=O)cc3c2cnn3CC[C@@H]2COCCN2)[nH]1 [ZZZ059, 4-[5-(1-ethyl-3-methyl-1H-pyrazol-5-yl)-4H-1,2,4-triazol-3-yl]-1-{2-[(3R)-morpholin-3-yl]ethyl}-1H-indazole-6-carboxamide]
> 990	CCN1CCCC[C@@H]1Cn1ncc2c(-c3nnc(-c4cc(C)nn4CC)[nH]3)cc(C(N)=O)cc21 (racemic) [ZZZ014, 4-[5-(1-ethyl-3-methyl-1H-pyrazol-5-yl)-4H-1,2,4-triazol-3-yl]-1-{[(2R)-1-ethylpiperidin-2-yl]methyl}-1H-indazole-6-carboxamide]
861	CCn1nc(C)cc1-c1n[nH]c(-c2cc(C(N)=O)cc3c2cnn3CCN2CC(CO)OCC2C)n1 (stereo not drawn) [ZZZ096, 4-[3-(1-ethyl-3-methyl-1H-pyrazol-5-yl)-1H-1,2,4-triazol-5-yl]-1-{2-[2-(hydroxymethyl)-5-methylmorpholin-4-yl]ethyl}-1H-indazole-6-carboxamide]
943	CCn1nc(C)cc1-c1n[nH]c(-c2cc(C(N)=O)cc3c2cnn3CCN2CCO[C@@H](COC)C2)n1 (racemic) [ZZZ114, 4-[3-(1-ethyl-3-methyl-1H-pyrazol-5-yl)-1H-1,2,4-triazol-5-yl]-1-{2-[(2R)-2-(methoxymethyl)morpholin-4-yl]ethyl}-1H-indazole-6-carboxamide]
> 990	CCn1nc(C)cc1-c1nnc(-c2cc(C(N)=O)cc3c2cnn3CC[C@H]2CCCCN2C)[nH]1 (racemic) [ZZZ023, 4-[5-(1-ethyl-3-methyl-1H-pyrazol-5-yl)-4H-1,2,4-triazol-3-yl]-1-{2-[(2R)-1-methylpiperidin-2-yl]ethyl}-1H-indazole-6-carboxamide]
> 990	CCn1nc(C)cc1-c1nnc(-c2cc(C(N)=O)cc3c2cnn3CC2CC3CNCC3C2)[nH]1 (stereo not drawn) [ZZZ074, 4-[5-(1-ethyl-3-methyl-1H-pyrazol-5-yl)-4H-1,2,4-triazol-3-yl]-1-[(octahydrocyclopenta[c]pyrrol-5-yl)methyl]-1H-indazole-6-carboxamide]
> 990	CCn1nc(C)cc1-c1nnc(-c2cc(C(N)=O)cc3c2cnn3CC[C@@H]2CCN(C)C2)[nH]1 [ZZZ035, 4-[5-(1-ethyl-3-methyl-1H-pyrazol-5-yl)-4H-1,2,4-triazol-3-yl]-1-{2-[(3S)-1-methylpyrrolidin-3-yl]ethyl}-1H-indazole-6-carboxamide]
954	CCn1nc(C)cc1-c1n[nH]c(-c2cc(C(N)=O)cc3c2cnn3CCN(C)CCO)n1 [ZZZ109, 4-[3-(1-ethyl-3-methyl-1H-pyrazol-5-yl)-1H-1,2,4-triazol-5-yl]-1-{2-[(2-hydroxyethyl)(methyl)amino]ethyl}-1H-indazole-6-carboxamide]
> 990	CCn1nc(C)c(F)c1-c1nnc(-c2cc(C(N)=O)cn3c(CN)ncc23)[nH]1 [ZZZ086, 3-(aminomethyl)-8-[5-(1-ethyl-4-fluoro-3-methyl-1H-pyrazol-5-yl)-4H-1,2,4-triazol-3-yl]imidazo[1,5-c]pyridine-6-carboxamide]
> 990	CCn1nc(C)cc1-c1nnc(-c2cc(C(N)=O)cc3c2cnn3[C@H]2C[C@@H](NC)C2)[nH]1 [ZZZ081, 4-[5-(1-ethyl-3-methyl-1H-pyrazol-5-yl)-4H-1,2,4-triazol-3-yl]-1-[(1s,3s)-3-(methylamino)cyclobutyl]-1H-indazole-6-carboxamide]
900	CCn1nc(C)cc1-c1n[nH]c(-c2cc(C(N)=O)cc3c2cnn3CCN2CCOCC2(C)C)n1 [ZZZ102, 1-[2-(3,3-dimethylmorpholin-4-yl)ethyl]-4-[3-(1-ethyl-3-methyl-1H-pyrazol-5-yl)-1H-1,2,4-triazol-5-yl]-1H-indazole-6-carboxamide]
> 990	CCn1nc(C)cc1-c1n[nH]c(-c2cc(C(N)=O)cc3c2cnn3CCN2CC(C)(O)C2)n1 [ZZZ103, 4-[3-(1-ethyl-3-methyl-1H-pyrazol-5-yl)-1H-1,2,4-triazol-5-yl]-1-[2-(3-hydroxy-3-methylazetidin-1-yl)ethyl]-1H-indazole-6-carboxamide]
846	CCn1nc(C)cc1-c1n[nH]c(-c2cc(C(N)=O)cc3c2cnn3CCN2CCO[C@@H](CO)C2)n1 [ZZZ115, 4-[3-(1-ethyl-3-methyl-1H-pyrazol-5-yl)-1H-1,2,4-triazol-5-yl]-1-{2-[(2R)-2-(hydroxymethyl)morpholin-4-yl]ethyl}-1H-indazole-6-carboxamide]
